One data set concerns human malignancies. Kind of data set: Clinical responses in Phase I clinical trial patients. The class given is in vivo. Conditions: in humans, oral. From the text:
Clearly, there is a pressing need for a modification which will slow and delay the lactone ring opening upon its entrance into the blood circulation.

Data set [1] in a line: Plasma level of closed lactone form of 9NC after i.s. administration. The class given is in vivo, mice.
Data set [2] can be described thus: Plasma level of closed lactone form of 9NC after oral administration to Phase I patients. Type of data set: in vivo, humans. As to conditions: after oral administration to Phase I clinical trial patients, on average.
In a further data set the test system is human tumor xenografts. As to conditions: in mice; cited from earlier work.
The conditions of data set [3]: sodium carboxylate salt vs closed lactone camptothecin; cited from earlier work.
Data set [4] in a line: Closed lactone form of CPT in plasma after intrastomach administration in mice. The class given is in vivo.
A short description of data set [5]: Closed lactone form of CPT in plasma after oral administration in humans. The class given is in vivo.
Data set [6] in a line: Metabolism and pharmacokinetics of camptothecin in human plasma. The class given is in vitro ADME.

Regarding `CC[C@@]1(O)C(=O)OCc2c1cc1n(c2=O)Cc2cc3c([N+](=O)[O-])cccc3nc2-1` [9NC, 9-nitrocamptothecin], the complete tumor regressions in the data set with human malignancies is on record as 2/32; in the data set on human tumor xenografts, 32/32. In addition, the “share of drug present in the plasma in the closed lactone form” value was 57% in data set [1] and about 3% in data set [2]. Also, the “potency relative to CPT against human tumor xenografts” value in the data set with human tumor xenografts is recorded as 2-3 times.

As for `CC[C@@](O)(C(=O)[O-])c1cc2n(c(=O)c1CO)Cc1cc3ccccc3nc1-2.[Na+]` [sodium carboxylate salt], the “potency relative to native camptothecin with the closed lactone ring intact” value in data set [3] is 10%.

For 20(S)-camptothecin [CPT], the “closed lactone form, share of the area under the curve” value in data set [4] was “approximately 54%”. For the same compound, the “closed lactone form, share of the area under the curve” value in data set [5] is given as “about 0.4%”. For the same compound, in data set [6], the “half-life time of the drug with lactone intact” value is on record as 30 min and the metabolite detected entry is given as “the only metabolite detected is the ring-opened sodium carboxylate salt”.
